Tests used:
[1] = system: T1, ALS (acetolactate synthase); experiment: acetoin colorimetric (creatine/naphthol, […] nm), crude leaf extract; assay type: biochemical, Amaranthus hybridus; conditions: MR2 population, zygosity not given; pyruvate, MgCl2, FAD, pH 7.5, 37 °C, 1 h; stated gain; read-out: I50 (μM) ± SE
T1 construct: native, crude seedling leaf extract supernatant (15,000 g), not purified

[2] = molecular target: T2, ALS (acetolactate synthase) (Amaranthus hybridus, UniProt A0A346FHL9); experiment: as above; assay type: biochemical; conditions: read-out: I50 (μM) ± SE
T2 construct: native, crude seedling leaf extract supernatant (15,000 g), not purified
T2 sequence (A0A346FHL9 81-669 limits assumed): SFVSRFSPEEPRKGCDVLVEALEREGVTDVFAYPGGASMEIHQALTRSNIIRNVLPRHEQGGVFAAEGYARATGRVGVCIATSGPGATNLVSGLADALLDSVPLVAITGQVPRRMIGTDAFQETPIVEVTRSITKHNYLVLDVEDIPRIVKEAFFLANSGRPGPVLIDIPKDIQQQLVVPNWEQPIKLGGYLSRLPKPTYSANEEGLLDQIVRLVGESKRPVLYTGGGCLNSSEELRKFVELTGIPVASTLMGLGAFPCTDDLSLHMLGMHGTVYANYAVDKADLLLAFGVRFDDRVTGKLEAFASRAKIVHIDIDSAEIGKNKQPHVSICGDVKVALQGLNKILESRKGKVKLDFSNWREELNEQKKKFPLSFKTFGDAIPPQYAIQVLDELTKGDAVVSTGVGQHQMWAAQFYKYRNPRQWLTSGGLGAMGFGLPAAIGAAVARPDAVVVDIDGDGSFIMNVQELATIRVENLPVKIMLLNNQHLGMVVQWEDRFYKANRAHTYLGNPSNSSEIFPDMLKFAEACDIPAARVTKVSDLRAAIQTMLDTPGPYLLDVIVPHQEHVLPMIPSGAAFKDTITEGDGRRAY

| Structure (SMILES) | IC50 [1] | IC50 [2] |
| --- | --- | --- |
| COCc1cnc(C2=NC(C)(C(C)C)C(=O)N2)c(C(=O)O)c1 (stereo not shown) [imazamox] | 3170 ± 112 µM | 117 ± 9.1 µM |
| COc1nn(C(=O)NS(=O)(=O)c2ccccc2OC(F)(F)F)c(=O)n1C [flucarbazone] | 145 ± 11.5 µM | 1 ± 0.1 µM |
| COc1cc(OC)nc(Oc2cccc(Oc3nc(OC)cc(OC)n3)c2C(=O)O)n1 [byspiribac] | 2730 ± 80 µM | 45.9 ± 8 µM |
| COC(=O)c1ccccc1S(=O)(=O)NC(=O)N(C)c1nc(C)nc(OC)n1 [tribenuron-methyl] | 273 ± 26 µM | 47.5 ± 6.3 µM |
| COc1ncc(F)c2nc(S(=O)(=O)Nc3c(F)cccc3F)nn12 [florasulam] | 56.5 ± 9 µM | 17.4 ± 1.4 µM |

Reference: PMC7572458, “Multiple mutations in the EPSPS and ALS genes of Amaranthus hybridus underlie resistance to glyphosate and ALS inhibitors” (Scientific Reports, 2020)
